# Patent publication US8735411B2, “Macrocyclic benzofused pyrimidine derivatives” (AbbVie Inc., priority 2006, dated 2014)
# Target: histamine H4 receptor (Homo sapiens, UniProt Q9H3N8)
# Experiment: In vitro histamine H4 potency in FLIPR (Ca2+ flux, HEK-293 cells coexpressing Gαqi5)
# Type: cell-based
# Parameters: expressed in transfected cells
# Settings: Kb for antagonists and inverse agonists, EC50 for partial agonists
# Excerpt: There are many methods available to show the effectiveness of compounds as histamine H4 receptor ligands. Histamine H4 receptors from mammalian species have been cloned. Methods to clone, express, and assess the potency and functional activity of such cloned genes are well known to those skilled in the art of molecular biology. […] Before testing, cells are loaded with a Ca^+2 sensitive fluorescent dye, in this case Fluo-4. In the case of partial agonist or agonist ligands, addition of compound to the cells leads to the increase in intracellular Ca^+2 which is detected by FLIPR (Fluorescence Imaging Plate Reader; Molecular Devices, Sunnyvale, Calif.) technology. […] The fluorescence intensities measured before addition of the test compound are subtracted from the fluorescence intensities at later time points. Peak response values determined at each concentration of ligand are expressed as a percentage of the response obtained with the full agonist histamine. Concentration versus response data are analyzed to obtain compound potency as Kb values for antagonists and inverse agonists and as EC50 values for partial agonists.
row,Molecule,Potency [µM]
1,"CN1CCCC(Oc2nc(N)nc3c2CCCc2ccccc2-3)C1 (stereo not drawn) [Example 69, 4-(1-Methyl-piperidin-3-yloxy)-6,7-dihydro-5H-benzo[6,7]cyclohepta[1,2-d]pyrimidin-2-ylamine]",3.162
2,"Nc1nc2c(c(N3CC[C@H](N)C3)n1)CCCCCc1ccccc1-2 [Example 25, 4-((S)-3-Amino-pyrrolidin-1-yl)-6,7,8,9-tetrahydro-5H-1,3-diaza-dibenzo[a,c]cyclononen-2-ylamine]",0.646
3,"Nc1nc2c(c(N3CC[C@H]4CNC[C@H]43)n1)CCCc1ccccc1-2 [Example 119, (3aS,6aS)-4-(Hexahydro-pyrrolo[3,4-b]pyrrol-1-yl)-6,7-dihydro-5H-benzo[6,7]cyclohepta[1,2-d]pyrimidin-2-amine]",0.269
4,"c1ccc2c(c1)CCCc1c-2nc(NCCc2c[nH]cn2)nc1N1CC2CCCNC2C1 (stereo not drawn) [Example 127, 6-(2-(1H-imidazol-4-yl)ethylamino-6,7-dihydro-5H-benzo[6,7]cyclohepta[1,2-d]pyrimidin-4-yl)octahydro-1H-pyrrolo[3,4-b]pyridine]",0.933
5,"CNc1nc2c(c(N3CCNCC3)n1)CCCc1ccccc1-2 [Example 123, Methyl-(4-piperazin-1-yl-6,7-dihydro-5H-benzo[6,7]cyclohepta[1,2-d]pyrimidin-2-yl)-amine]",1.622
6,"Nc1nc(NCCCN2CCCCC2)c2c(n1)-c1ccccc1CCC2 [Example 113, N^4-(3-Piperidin-1-yl-propyl)-6,7-dihydro-5H-benzo[6,7]cyclohepta[1,2-d]pyrimidine-2,4-diamine]",4.266
7,"CN[C@@H]1CCN(c2nc(N)nc3c2S(=O)(=O)CCc2ccccc2-3)C1 [Example 111, 4-((R)-3-Methylamino-pyrrolidin-1-yl)-5,5-dioxo-6,7-dihydro-5H-5λ6-thia-1,3-diaza-dibenzo[a,c]cyclohepten-2-ylamine]",1.413
8,"CN1CCN(c2nc(N)nc3c2OCc2ccccc2-3)CC1 [Example 41, 1-(4-Methyl-piperazin-1-yl)-9H-10-oxa-2,4-diaza-phenanthren-3-ylamine]",0.05
9,"CN[C@@H]1CCN(c2ncnc3c2CCCc2ccccc2-3)C1 [Example 124, 4-(3-(R)-Methylamino-pyrrolidin-1-yl)-6,7-dihydro-5H-benzo[6,7]cyclohepta[1,2-d]pyrimidine]",1.413
10,"O=C(O)c1nc2c(c(N3CC4CCCNC4C3)n1)CCCc1ccccc1-2 (stereo not drawn) [Example 134, 4-(Octahydro-pyrrolo[3,4-b]pyridin-6-yl)-6,7-dihydro-5H-benzo[6,7]cyclohepta[1,2-d]pyrimidine-2-carboxylic acid]",11.885
11,"Nc1nc2c(c(N3CCC(N4CCCCC4)C3)n1)CCCc1ccccc1-2 (stereo not drawn) [Example 18, 4-(3-Piperidin-1-yl-pyrrolidin-1-yl)-6,7-dihydro-5H-benzo[6,7]cyclohepta[1,2-d]pyrimidin-2-ylamine]",25.704
12,"Nc1nc2c(c(N3C[C@H]4CNC[C@H]43)n1)CCCc1ccccc1-2 [Example 117, (1R,5S)-4-(3,6-Diaza-bicyclo[3.2.0]hept-6-yl)-6,7-dihydro-5H-benzo[6,7]cyclohepta[1,2-d]pyrimidin-2-ylamine]",0.012
13,"CC(=O)Nc1cccc2c1-c1nc(N)nc(N3CCNCC3)c1CCC2 [Example 132, N-(2-Amino-4-piperazin-1-yl-6,7-dihydro-H-benzo[6,7]cyclohepta[1,2-d]pyrimidin-11-yl)-acetamide]",1.096
14,"Nc1nc2c(c(N3CC4CCCNC4C3)n1)CCCc1ccccc1-2 (stereo not drawn) [Example 59, 4-octahydro-6H-pyrrolo[3,4-b]pyridin-6-yl-6,7-dihydro-5H-benzo[6,7]cyclohepta[1,2-d]pyrimidin-2-amine]",0.044
15,"Nc1nc2c(c(N3CC4(CCCNC4)C3)n1)CCCc1ccccc1-2 [Example 77, 4-(2,6-Diaza-spiro[3.5]non-2-yl)-6,7-dihydro-5H-benzo[6,7]cyclohepta[1,2-d]pyrimidin-2-ylamine]",9.333
16,"Nc1nc2c(c(N3CC4CCCNC4C3)n1)CCOc1cc(-c3ccccc3)ccc1-2 (stereo not drawn) [Example 105, 4-Octahydro-pyrrolo[3,4-b]pyridin-6-yl-9-phenyl-5,6-dihydro-7-oxa-1,3-diaza-dibenzo[a,c]cyclohepten-2-ylamine]",0.083
17,"CN1CCN(c2nc(N)nc3c2CCOc2ccccc2-3)CC1 [Example 29, 4-(4-Methyl-piperazin-1-yl)-5,6-dihydro-7-oxa-1,3-diaza-dibenzo[a,c]cyclohepten-2-ylamine]",0.039
18,"CN[C@@H]1CCN(c2nc(N)nc3c2CCOc2ccc(OC)cc2-3)C1 [Example 47, 10-methoxy-4-[(3R)-3-(methylamino)pyrrolidin-1-yl]-5,6-dihydro[1]benzoxepino[5,4-d]pyrimidin-2-amine]",0.912
19,"NCCC(=O)Nc1nc2c(c(N3CCNCC3)n1)CCCc1ccccc1-2 [Example 93, 3-Amino-N-(4-piperazin-1-yl-6,7-dihydro-5H-benzo[6,7]cyclohepta[1,2-d]pyrimidin-2-yl)-propionamide]",0.135
20,"NCC(=O)Nc1nc2c(c(N3CCNCC3)n1)CCCc1ccccc1-2 [Example 89, 2-Amino-N-(4-piperazin-1-yl-6,7-dihydro-5H-benzo[6,7]cyclohepta[1,2-d]pyrimidin-2-yl)-acetamide]",0.089
21,"Nc1nc2c(c(N3CC4CNCC3C4)n1)CCCc1ccccc1-2 (stereo not drawn) [Example 81, 4-(3,6-Diaza-bicyclo[3.2.1]oct-6-yl)-6,7-dihydro-5H-benzo[6,7]cyclohepta[1,2-d]pyrimidin-2-ylamine]",4.169

# Now from value to molecule:
row,Potency [µM],Molecule
1,0.1,"CN[C@@H]1CCN(c2nc(N)nc3c2CCOc2ccc(C)cc2-3)C1 [Example 46, 10-methyl-4-[(3R)-3-(methylamino)pyrrolidin-1-yl]-5,6-dihydro[1]benzoxepino[5,4-d]pyrimidin-2-amine]"
2,0.631,"[1-(6,7-Dihydro-5H-benzo[6,7]cyclohepta[1,2-d]pyrimidin-4-yl)-azetidin-3-yl]-amine [Example 125]"
3,0.0072,"Nc1nc2c(c(N3CCNCC3)n1)CCCc1ccc(F)cc1-2 [Example 13, 10-Fluoro-4-piperazin-1-yl-6,7-dihydro-5H-benzo[6,7]cyclohepta[1,2-d]pyrimidin-2-ylamine]"
4,0.55,"NCCCC(=O)Nc1nc2c(c(N3CCNCC3)n1)CCCc1ccccc1-2 [Example 91, 4-Amino-N-(4-piperazin-1-yl-6,7-dihydro-5H-benzo[6,7]cyclohepta[1,2-d]pyrimidin-2-yl)-butyramide]"
5,0.166,"Nc1nc2c(c(N3CCNCC3)n1)CCOc1ccccc1-2 [Example 30, 4-Piperazin-1-yl-5,6-dihydro-7-oxa-1,3-diaza-dibenzo[a,c]cyclohepten-2-ylamine]"
6,0.037,"CN1CC[C@@H](Oc2nc(N)nc3c2CCCc2ccccc2-3)C1 [Example 70, 4-((R)-1-Methyl-pyrrolidin-3-yloxy)-6,7-dihydro-5H-benzo[6,7]cyclohepta[1,2-d]pyrimidin-2-ylamine]"
7,0.12,"CN[C@@H]1CCN(c2nc(N)nc3c2CCOc2cc(I)ccc2-3)C1 [Example 100, 9-Iodo-4-((R)-3-methylamino-pyrrolidin-1-yl)-5,6-dihydro-7-oxa-1,3-diaza-dibenzo[a,c]cyclohepten-2-ylamine]"
8,0.033,"CNC1CN(c2nc(N)nc3c2COc2ccccc2-3)C1 [Example 8, 1-(3-Methylamino-azetidin-1-yl)-10H-9-oxa-2,4-diaza-phenanthren-3-ylamine]"
9,5.754,"CNC1CN(c2nc(N)nc3c2CCS(=O)(=O)c2ccccc2-3)C1 [Example 38, 4-(3-Methylamino-azetidin-1-yl)-7,7-dioxo-6,7-dihydro-5H-7λ6-thia-1,3-diaza-dibenzo[a,c]cyclohepten-2-ylamine]"
10,0.085,"CN1CCC2CN(c3nc(N)nc4c3CCCc3ccccc3-4)CC2C1 (stereo not drawn) [Example 85, 4-(5-Methyl-octahydro-pyrrolo[3,4-c]pyridin-2-yl)-6,7-dihydro-5H-benzo[6,7]cyclohepta[1,2-d]pyrimidin-2-ylamine]"
11,2.57,"c1cncc(CNc2nc3c(c(N4CC5CCCNC5C4)n2)CCCc2ccccc2-3)c1 (stereo not drawn) [Example 92, 6-(2-pyridin-3-ylmethylamino-6,7-dihydro-5H-benzo[6,7]cyclohepta[1,2-d]pyrimidin-4-yl)octahydro-1H-pyrrolo[3,4-b]pyridine]"
12,0.054,"Nc1nc2c(c(N3CC4CCCNC4C3)n1)SCCc1ccccc1-2 (stereo not drawn) [Example 110, 4-(Octahydro-pyrrolo[3,4-b]pyridin-6-yl)-6,7-dihydro-5-thia-1,3-diaza-dibenzo[a,c]cyclohepten-2-ylamine]"
13,0.027,"CN[C@@H]1CCN(c2nc(N)nc3c2CCOc2ccccc2-3)C1 [Example 31, 4-((R)-3-Methylamino-pyrrolidin-1-yl)-5,6-dihydro-7-oxa-1,3-diaza-dibenzo[a,c]cyclohepten-2-ylamine]"
14,0.013,"CN1CCC(Nc2nc(N)nc3c2CCCc2ccccc2-3)CC1 [Example 65, N^4-(1-methylpiperidin-4-yl)-6,7-dihydro-5H-benzo[6,7]cyclohepta[1,2-d]pyrimidine-2,4-diamine]"
15,0.032,"CN[C@@H]1CCN(c2nc(N)nc3c2COc2ccccc2-3)C1 [Example 9, 1-(3-(R)-Methylamino-pyrrolidin-1-yl)-10H-9-oxa-2,4-diaza-phenanthren-3-ylamine]"
